Test results as given in the supplement of paper PMC10307832.

What was measured:
Experiment in all cases: relative viability (nuclei count vs DMSO), 5 days (fraction); higher = more cells survive
IU1-47 + OSI-027 = compound: CC1=CC(=C(N1C2=CC=C(C=C2)Cl)C)C(=O)CN3CCCCC3 [IU1-47] + COc1cccc2cc(-c3nc([C@H]4CC[C@H](C(=O)O)CC4)n4ncnc(N)c34)[nH]c12 [OSI-027] (partner 0.5 µM)
Method in brief: (§1)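 Nuclei were stained with Hoechst during a one-step fixation (final 0.05% Triton X-100, 1% formaldehyde, 1 ug/ml Hoechst) carried out 5 days after dosing, then counted on 4× images. The cells, lung cancer lines in 1536-well plates, had been dosed by pin tool the day after seeding with one drug alone or a fixed anchor-drug dose plus five library-drug doses (not always all listed) in √10 steps. Relative viability is the nuclei count in treated wells divided by that in vehicle wells, and each value is the median of duplicate plates.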

FG-4592 + Lapatinib = compound: Cc1nc(C(=O)NCC(=O)O)c(O)c2ccc(Oc3ccccc3)cc12 [FG-4592] + CS(=O)(=O)CCNCc1ccc(-c2ccc3ncnc(Nc4ccc(OCc5cccc(F)c5)c(Cl)c4)c3c2)o1 [Lapatinib] (partner 2 µM)
Method in brief: as §1

FG-4592 + Dasatinib = compound: Cc1nc(C(=O)NCC(=O)O)c(O)c2ccc(Oc3ccccc3)cc12 [FG-4592] + Cc1nc(Nc2ncc(C(=O)Nc3c(C)cccc3Cl)s2)cc(N2CCN(CCO)CC2)n1 [Dasatinib] (partner 0.075 µM)
Method in brief: as §1

IU1-47 + Pictilisib = compound: CC1=CC(=C(N1C2=CC=C(C=C2)Cl)C)C(=O)CN3CCCCC3 [IU1-47] + CS(=O)(=O)N1CCN(Cc2cc3nc(-c4cccc5[nH]ncc45)nc(N4CCOCC4)c3s2)CC1 [Pictilisib] (partner 1 µM)
Method in brief: as §1

Cell Line	relative viability (IU1-47 + OSI-027; first compound 0.08 µM)	relative viability (IU1-47 + OSI-027; first compound 0.253 µM)	relative viability (IU1-47 + OSI-027; first compound 0.8 µM)	relative viability (IU1-47 + OSI-027; first compound 2.53 µM)	relative viability (IU1-47 + OSI-027; first compound 8 µM)	relative viability (FG-4592 + Lapatinib; first compound 0.08 µM)	relative viability (FG-4592 + Lapatinib; first compound 0.253 µM)	relative viability (FG-4592 + Lapatinib; first compound 0.8 µM)	relative viability (FG-4592 + Lapatinib; first compound 2.53 µM)	relative viability (FG-4592 + Lapatinib; first compound 8 µM)	relative viability (FG-4592 + Dasatinib; first compound 0.08 µM)	relative viability (FG-4592 + Dasatinib; first compound 0.253 µM)	relative viability (FG-4592 + Dasatinib; first compound 0.8 µM)	relative viability (FG-4592 + Dasatinib; first compound 2.53 µM)	relative viability (FG-4592 + Dasatinib; first compound 8 µM)	relative viability (IU1-47 + Pictilisib; first compound 0.08 µM)	relative viability (IU1-47 + Pictilisib; first compound 0.253 µM)	relative viability (IU1-47 + Pictilisib; first compound 0.8 µM)	relative viability (IU1-47 + Pictilisib; first compound 2.53 µM)	relative viability (IU1-47 + Pictilisib; first compound 8 µM)
LU99A	0.246	0.303	0.337	0.298	0.317	0.964	0.93	0.801	0.96	0.83	0.535	0.371	0.402	0.561	0.58	0.35	0.337	0.275	0.312	0.298
ABC-1	0.462	0.504	0.43	–	0.379	1.11	1.11	1.06	1.08	0.801	0.532	0.463	0.48	0.59	0.463	0.766	0.711	0.895	–	0.671
NCI-H2170	0.865	0.725	0.645	0.722	0.727	0.263	0.244	0.242	0.277	0.256	0.592	0.478	0.412	0.59	0.497	0.309	0.308	0.287	0.305	0.331
NCI-H2347	0.318	0.456	0.43	0.398	0.375	0.906	–	0.848	0.917	0.974	0.323	–	0.263	0.284	0.279	0.505	0.651	0.446	0.448	0.457
NCI-H1993	0.492	0.586	0.498	0.498	0.567	0.848	0.885	0.744	0.929	0.719	0.513	0.631	0.473	0.547	0.396	0.899	0.769	0.86	0.913	0.821
NCI-H322M	0.677	0.553	0.632	0.568	0.553	0.451	0.621	0.631	0.646	0.633	0.248	0.249	0.219	0.245	0.224	0.56	0.478	0.514	0.517	0.513
NCI-H838	0.405	0.424	0.428	0.417	0.447	0.976	1.02	0.901	0.822	0.966	0.271	0.262	0.226	0.27	0.207	0.391	0.462	0.485	0.436	0.425
HARA	0.554	0.406	0.456	–	0.413	0.677	0.719	–	0.728	0.667	0.272	0.208	0.266	0.24	0.234	0.407	0.504	0.371	0.509	0.336
NCI-H2087	0.834	0.582	0.506	–	0.531	0.888	0.943	1.37	1.1	1.15	0.793	0.864	0.862	0.861	0.757	0.884	0.865	1.11	0.452	0.83
NCI-H1437	0.873	0.886	0.92	0.854	0.815	0.883	0.817	0.8	0.677	0.499	0.409	0.309	0.335	0.392	0.345	0.403	0.428	0.423	0.413	0.35
NCI-H1792	0.816	0.771	0.879	0.566	0.691	0.859	0.785	0.908	0.86	0.849	0.871	0.72	0.846	0.668	0.748	0.26	0.318	0.253	0.165	0.286
NCI-H650	0.507	0.55	0.487	0.482	0.441	0.633	1.03	0.744	0.728	0.802	0.464	0.491	0.393	0.407	0.392	0.882	1	0.932	0.968	0.832
COR-L23	0.831	0.977	0.845	0.901	0.563	0.906	0.914	0.965	0.838	0.81	0.467	0.47	0.504	0.446	0.409	0.936	0.877	0.874	0.652	0.905
COR-L 105	0.746	0.634	0.711	0.581	0.57	0.348	0.342	0.264	0.382	0.329	0.309	0.306	0.294	0.258	0.286	0.421	0.411	0.352	0.379	0.396
LK-2	0.219	0.199	0.184	0.188	0.184	0.695	0.912	0.68	0.886	0.767	0.281	0.304	–	0.262	0.277	0.606	0.614	0.615	0.412	0.474
201T	0.747	0.784	0.886	0.813	0.832	0.976	1.03	0.931	1.04	1.01	0.549	0.566	0.616	0.569	0.646	0.672	0.682	0.709	–	0.664
